Experimental data reported in US8252807B2, “Methods of inhibiting the interaction between S100 and the receptor for advanced glycation end-products” (Board of Regents, The University of Texas System, priority 2007, dated 2012).

Assays:
[1] = test system: SKOV3 ovarian cells; experiment: SKOV3 ovarian cell proliferation; format: cell-based; conditions: 24, 48 and 72 hours
Experimental: SKOV3 ovarian cells were cultured for up to three days in the presence of different concentrations of cromolyn, and cell proliferation was analyzed at 24, 48, and 72 hours. *, P<0.05.

[2] = target: T1, S100P (Homo sapiens, UniProt P25815); experiment: S100P binding to cromolyn using affinity chromatography; conditions: cromolyn coupled to AF-TOYOPEARL; EGTA elution; control column did not retain
T1 construct: full-length human S100P cDNA (NM_005980) was cloned into the pTrcHis2 vector; His tag; made in house
Experimental: Cromolyn was coupled with the amino group of AF-amino TOYOPEARL to generate a cromolyn affinity column. A negative control column was prepared by blocking the amino group. Purified S100P was added to both columns, which were then washed extensively. Protein was eluted from the columns using EGTA and subjected to sodium dodecylsulfate polyacrylamide gel electrophoresis and staining with Commassie blue. Lane 1 of the gel is the molecular weight marker; lane 2 is the eluate from the control column; and lane 3 is the eluate from the cromolyn column (arrow, S100P). The gel shown is one of three independent experiments.
Cromolyn was coupled to AF-TOYOPEARL resin as described in Shishibori, et al., Three distinct anti-allergic drugs, amlexanox, cromolyn and tranilast, bind to S100A 12 and S100A13 of the S100 protein family; Biochem. J. 1999 Mar. 15; 338 (Pt 3):583-9. Briefly, 0.1 grams of cromolyn was dissolved in 1 mL of N,N-dimethylformamide and added to 7 mL (5 grams wet mass) AF-TOYOPEARL. Next, 0.5 grams of N-ethyl-N-(3-dimethylaminopropyl) carbodiimide hydrochloride, suspended in 10 mL of N,N-dimethylformamide, was added to the cromolyn+AF-TOYOPEARL slurry. The pH was adjusted to 5.0, and the slurry was incubated with gentle shaking for 48 hours at 25° C. As a negative control, a column was prepared by blocking the amino group of AF-TOYOPEARL with sodium acetate and acetic anhydride. […]

[3] = test system: BxPC-3 cells; experiment: BxPC-3 cell viability, 72 hours; format: cell-based
Experimental: BxPC-3 cells were plated at 1.0×10^3 cells/well and treated with 0 μM, 1 μM, 10 μM, and 100 μM of cromolyn or C5 alone or in combination with gemcitabine 1 μM and cell viability was analyzed after 72 hours. Two-tailed two-sample (unpaired) Student's t-tests were used to determine P values. […] BxPC-3 cells were plated at 1.0×10^3 cells/well and treated with either 100 μM of cromolyn or 1 μM C5 alone or in combination with gemcitabine (1 μM) and cell viability was analyzed after 72 hours.

[4] = test system: Panc-1 cells; experiment: Panc-1 cell growth (MTS); format: cell-based
Experimental: Panc-1 pancreatic adenocarcinoma cells (1.0×10^3 cells/well) were cultured in the presence or absence of S100P (100 nM) and with or without cromolyn (100 μM), and cell proliferation was analyzed at 24, 48, and 72 hours. Means and 95% confidence intervals of three independent experiments performed in triplicate are shown. *, P=0.001, S100P alone versus S100P+cromolyn.
Panc-1 cells were plated at 1.0×10^3 cells/well and treated with platelet-derived growth factor (10 ng/mL) with or without cromolyn (100 μM), and cell proliferation was analyzed after 48 hours. Means and 95% confidence intervals of three independent experiments performed in triplicate are shown. *, P=0.004 PDGF and P=0.022 cromolyn+PDGF versus control.
Growth of Panc-1 and BxPC3 pancreatic adenocarcinoma cells was analyzed using MTS reagent (Promega, Madison, Wis.) according to the manufacturer's directions. Purified S100P (100 nM final concentration) with or without cromolyn (100 μM final concentration) was added to Panc-1 cells. Only cromolyn (0-100 μM) was added to BxPC-3 cells, which express endogenous S100P. For both cell models, 1.0×10^3 cells/well were plated in 96-well culture dishes. Cells were treated with S100P, PDGF, or cromolyn, or a combination, followed immediately by treatment with either S100P or PDGF. MTS (20 μL per well) was added to cells at various times, and the mixture was incubated for 1 hour at 37° C. Samples were then read at 490 nm (as O.D. units) on a uQuant-Microplate Spectrophotometer (Bio-Tek Services Inc., Richmond, Va.). The assay was performed three times in triplicate.

[5] = test system: Panc-1 cells; experiment: Matrigel invasion assay, Panc-1; format: cell-based; conditions: 24 hours
Experimental: FIGS. 2A-2D show the effect of cromolyn on pancreatic cancer cell invasion. Panc-1 and BxPC-3 cells were plated in Bio-coat matrigel and control chambers and cultured in serum-free culture media. After 24 hours non-invaded cells in the upper chamber were removed, and cells that invaded onto the lower surface of the membrane were counted from five adjacent fields. […] Data are expressed as the percent invasion through the matrigel matrix and membrane relative to migration through the control membrane. Means and 95% confidence intervals from three independent experiments performed in triplicate are shown. Two-tailed two-sample (unpaired) Student's t-tests were used to determine P values.
Panc-1 and BxPC-3 cells were seeded in BIOCOAT matrigel invasion chambers and in control chambers without matrigel (Becton-Dickinson, Bedford, Mass.) according to the manufacturer's protocol. Panc-1 cells were seeded with S100P (100 nM) with or without cromolyn (100 μM), and BxPC-3 cells were seeded with or without cromolyn (1-100 μM). Briefly, 2.0×10^5 cells in 300 μL top solution (serum-free media) were added to each chamber and allowed to invade matrigel for 24 hours at 37° C. in a 5% CO2 atmosphere. The non-invading cells on the upper surface of membrane were removed from the chambers with a cotton swab, and the invading cells on the lower surface of the membrane were fixed and stained using a Diff-Quick stain kit (Becton Dickinson, Bedford, Mass.). After two washes with water, the chambers were allowed to air dry. The numbers of invading cells in five adjacent microscope fields per membrane were counted at 20× magnification to obtain the average number of cells per field. Data are expressed as the percent invasion through the matrigel matrix and membrane relative to the migration through the control membrane. The assays were performed three times.

O=C(O)c1cc(=O)c2c(OCC(O)COc3cccc4oc(C(=O)O)cc(=O)c34)cccc2o1 [cromolyn, disodium 1,3-bis[(2′-carboxylatochromon-5′-yl)oxy]-2-hydroxypropane]
growth of SKOV3 cells [1]: reduced the growth | S100P retained by cromolyn affinity column [2]: retained S100P | BxPC-3 cell viability ([3]; 1-100 μM, alone or with gemcitabine 1 μM): inhibit BxPC-3 cell viability | concentration giving the same level of cell reduction in combination with gemcitabine ([3]; with gemcitabine 1 μM): 100 µM | serum stimulated Panc-1 cell proliferation [4]: did not influence | PDGF-stimulated Panc-1 growth in presence of cromolyn ([4]; PDGF 10 ng/mL, cromolyn 100 μM, 48 hours): nor did it inhibit growth stimulation caused by PDGF | Panc-1 cell proliferation, mean ([4]; S100P 100 nM + cromolyn 100 μM): 0.56 MTS units | Panc-1 cell proliferation, difference S100P versus S100P+cromolyn ([4]; S100P 100 nM, cromolyn 100 μM): 0.37 MTS units | effects of exogenous S100P treatment on Panc-1 proliferation ([4]; S100P 100 nM, cromolyn 100 μM): completely blocked | Panc-1 cell proliferation, cromolyn treatment alone ([4]; no S100P): no effect | Panc-1 cells invaded, difference S100P versus S100P+cromolyn [5]: 48.6% | Panc-1 cells invaded, mean ([5]; S100P 100 nM + cromolyn 100 μM): 9.4% | Panc-1 basal cell invasion ([5]; no S100P): did not reduce basal cell invasion
